{
  "source": "paper PMC12005767",
  "about": "(Advanced Science, 2025)",
  "key": {"HDAC11": {"biological_target": "T1, HDAC11 (Homo sapiens, UniProt Q96DB2)", "T1 construct": "The HDAC11 enzyme was a full‐length human recombinant HDAC enzyme sourced from BPS Bioscience; purchased BPS Bioscience", "T1 sequence (Q96DB2 1-347)": "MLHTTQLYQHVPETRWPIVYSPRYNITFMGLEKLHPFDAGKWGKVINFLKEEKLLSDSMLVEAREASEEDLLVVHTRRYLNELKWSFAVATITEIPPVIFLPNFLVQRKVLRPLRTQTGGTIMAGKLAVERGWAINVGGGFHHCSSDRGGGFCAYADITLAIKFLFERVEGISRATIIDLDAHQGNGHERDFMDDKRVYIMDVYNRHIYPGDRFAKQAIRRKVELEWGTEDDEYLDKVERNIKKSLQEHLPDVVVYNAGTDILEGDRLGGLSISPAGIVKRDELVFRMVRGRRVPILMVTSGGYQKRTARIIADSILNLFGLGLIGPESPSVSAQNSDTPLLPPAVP", "experiment": "HDAC11 inhibition fluorescence assay (ETDKmyr substrate)", "format": "biochemical", "procedure": "The HDAC11 enzyme was a full‐length human recombinant HDAC enzyme sourced from BPS Bioscience. In detail, a total of 20 µL of recombinant HDAC11 enzyme solution (working concentration = 1 × 10^−9 M) was combined with varying concentrations of the test compound (20 µL) in a 96‐well black plate. The mixture was then incubated at a temperature of 30 °C for a duration of 1 h. Subsequently, 10 µL of the specific fluorogenic substrate (ETDKacyl‐Kmyr) was added. Following 2 h incubation at 30 °C, the catalytic reaction was ceased by adding 10 µL of a developer solution consisting of 2 mg mL^−1 trypsin and 5 × 10^−6 M trichostatin A (TSA). After a standing period of 6 h, the fluorescence intensity was assessed using a microplate reader at excitation and emission wavelengths of 360 and 460 nm, respectively. The inhibition ratios were calculated based on the fluorescence intensity readings of the test wells compared to the control wells. GraphPad Prism 8.0 software was employed to generate IC 50 curves and determine the corresponding IC 50 values utilizing the “log(inhibitor) versus normalized response‐variable slope” function."}, "HDAC1": {"biological_target": "T2, HDAC1 (Homo sapiens, UniProt Q13547)", "T2 construct": "purchased BPS Bioscience", "T2 sequence (Q13547 whole entry)": "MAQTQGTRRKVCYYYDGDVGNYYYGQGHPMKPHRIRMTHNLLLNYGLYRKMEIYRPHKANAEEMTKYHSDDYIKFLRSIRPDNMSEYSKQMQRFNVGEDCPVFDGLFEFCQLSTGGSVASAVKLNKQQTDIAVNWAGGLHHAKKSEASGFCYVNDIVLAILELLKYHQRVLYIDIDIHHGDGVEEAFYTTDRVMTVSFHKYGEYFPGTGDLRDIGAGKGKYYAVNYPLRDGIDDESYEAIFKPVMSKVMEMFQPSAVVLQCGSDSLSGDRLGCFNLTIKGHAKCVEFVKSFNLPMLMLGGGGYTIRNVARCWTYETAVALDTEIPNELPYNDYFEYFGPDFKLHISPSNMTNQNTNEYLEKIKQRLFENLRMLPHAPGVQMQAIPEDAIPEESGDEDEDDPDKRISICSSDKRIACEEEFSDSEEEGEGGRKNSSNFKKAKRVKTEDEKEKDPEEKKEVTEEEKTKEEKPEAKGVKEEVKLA", "experiment": "In vitro HDACs inhibition fluorescence assay, HDAC1", "format": "biochemical", "settings": "mean ± SEM", "procedure": "(§1) In Vitro HDACs Inhibition Fluorescence Assay: For the inhibitory activity against HDAC1‐10, enzymes were also procured from BPS Bioscience. The in vitro […] inhibition assays were conducted following the established method described previously.^[ [45] ^] The working concentrations of HDAC1‐10 were 4 × 10^−9 M. The fluorogenic substrate of HDAC1, 2, 3, and 6 was Boc‐Lys (acetyl)‐AMC, and the substrate of HDAC4, 5, 7, 8, 9, and 10 was Boc‐Lys (trifluoroacetyl) AMC. The developer solution consists of 30 mg mL^−1 trypsin and 5 × 10^−6 M TSA. A standing period of 30 min was sufficient before assessing the fluorescence intensity."}, "HDAC5": {"biological_target": "T3, HDAC5 (Homo sapiens, UniProt Q9UQL6)", "T3 construct": "purchased BPS Bioscience", "T3 sequence (Q9UQL6 whole entry)": "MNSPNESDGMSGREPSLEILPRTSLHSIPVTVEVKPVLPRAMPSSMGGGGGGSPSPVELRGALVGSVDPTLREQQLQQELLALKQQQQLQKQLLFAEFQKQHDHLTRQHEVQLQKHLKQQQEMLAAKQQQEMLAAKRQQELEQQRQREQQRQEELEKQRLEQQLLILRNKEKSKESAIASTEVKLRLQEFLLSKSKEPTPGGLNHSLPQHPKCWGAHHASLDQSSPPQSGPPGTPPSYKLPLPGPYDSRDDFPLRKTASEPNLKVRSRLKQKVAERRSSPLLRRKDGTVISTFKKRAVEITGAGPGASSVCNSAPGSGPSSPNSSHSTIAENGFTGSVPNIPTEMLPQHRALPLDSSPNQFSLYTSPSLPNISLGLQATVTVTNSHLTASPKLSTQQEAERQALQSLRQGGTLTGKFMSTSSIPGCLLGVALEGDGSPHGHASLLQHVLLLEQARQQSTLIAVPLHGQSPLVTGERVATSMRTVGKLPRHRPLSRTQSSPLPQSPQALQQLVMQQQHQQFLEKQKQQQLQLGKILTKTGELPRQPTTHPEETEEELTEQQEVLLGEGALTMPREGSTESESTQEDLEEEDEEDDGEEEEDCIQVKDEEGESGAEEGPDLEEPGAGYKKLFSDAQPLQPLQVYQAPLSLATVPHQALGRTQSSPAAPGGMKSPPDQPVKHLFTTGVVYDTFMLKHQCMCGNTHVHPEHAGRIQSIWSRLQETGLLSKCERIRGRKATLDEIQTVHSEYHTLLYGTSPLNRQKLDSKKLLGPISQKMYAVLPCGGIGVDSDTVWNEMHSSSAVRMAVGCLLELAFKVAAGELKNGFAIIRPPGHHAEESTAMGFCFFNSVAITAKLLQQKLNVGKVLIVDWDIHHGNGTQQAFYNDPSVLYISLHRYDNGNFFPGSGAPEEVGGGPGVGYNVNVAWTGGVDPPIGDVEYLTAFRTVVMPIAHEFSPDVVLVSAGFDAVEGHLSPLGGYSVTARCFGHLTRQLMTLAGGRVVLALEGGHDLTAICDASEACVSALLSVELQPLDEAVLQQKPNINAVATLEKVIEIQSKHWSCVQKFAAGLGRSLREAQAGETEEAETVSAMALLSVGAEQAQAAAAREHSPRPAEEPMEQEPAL", "experiment": "In vitro HDACs inhibition fluorescence assay, HDAC5", "format": "biochemical", "settings": "mean ± SEM", "procedure": "as §1"}, "HDAC6": {"biological_target": "T4, HDAC6 (Homo sapiens, UniProt Q9UBN7)", "T4 construct": "purchased BPS Bioscience", "T4 sequence (Q9UBN7 whole entry)": "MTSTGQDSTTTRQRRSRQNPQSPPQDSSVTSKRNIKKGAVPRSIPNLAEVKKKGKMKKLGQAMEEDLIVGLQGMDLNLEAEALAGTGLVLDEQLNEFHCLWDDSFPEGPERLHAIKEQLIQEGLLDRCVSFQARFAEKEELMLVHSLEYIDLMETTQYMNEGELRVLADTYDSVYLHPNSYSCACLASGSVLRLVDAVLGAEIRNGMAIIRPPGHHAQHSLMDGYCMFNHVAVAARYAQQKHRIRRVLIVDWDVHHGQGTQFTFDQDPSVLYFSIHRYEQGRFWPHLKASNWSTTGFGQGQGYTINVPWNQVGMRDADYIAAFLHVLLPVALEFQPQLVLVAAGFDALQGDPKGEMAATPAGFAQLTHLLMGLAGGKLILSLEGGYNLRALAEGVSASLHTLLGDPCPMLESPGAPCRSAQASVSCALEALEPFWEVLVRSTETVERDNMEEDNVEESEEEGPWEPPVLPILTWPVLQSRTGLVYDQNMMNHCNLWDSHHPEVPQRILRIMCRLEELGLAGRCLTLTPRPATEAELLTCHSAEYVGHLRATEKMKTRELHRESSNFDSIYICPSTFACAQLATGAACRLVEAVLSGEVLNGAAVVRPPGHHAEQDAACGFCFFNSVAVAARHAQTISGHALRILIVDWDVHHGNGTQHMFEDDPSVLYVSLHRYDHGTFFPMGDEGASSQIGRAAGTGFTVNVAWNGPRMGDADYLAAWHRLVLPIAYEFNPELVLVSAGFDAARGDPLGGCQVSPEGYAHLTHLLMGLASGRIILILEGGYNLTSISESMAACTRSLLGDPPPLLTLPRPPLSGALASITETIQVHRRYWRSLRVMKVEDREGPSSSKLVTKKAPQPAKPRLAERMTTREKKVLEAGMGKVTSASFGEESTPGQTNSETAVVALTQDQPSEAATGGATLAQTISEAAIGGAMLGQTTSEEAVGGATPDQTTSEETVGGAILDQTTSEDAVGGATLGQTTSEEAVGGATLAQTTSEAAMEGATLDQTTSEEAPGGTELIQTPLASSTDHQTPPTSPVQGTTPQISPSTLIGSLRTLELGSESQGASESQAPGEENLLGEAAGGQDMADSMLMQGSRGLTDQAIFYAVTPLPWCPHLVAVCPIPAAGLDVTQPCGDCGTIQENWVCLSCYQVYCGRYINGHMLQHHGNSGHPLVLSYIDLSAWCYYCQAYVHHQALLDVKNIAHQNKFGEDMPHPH", "experiment": "In vitro HDACs inhibition fluorescence assay, HDAC6", "format": "biochemical", "settings": "mean ± SEM", "procedure": "as §1"}, "SIRT2": {"biological_target": "SIRT2 (Homo sapiens, UniProt Q8IXJ6)", "sequence (Q8IXJ6 whole entry, species assumed)": "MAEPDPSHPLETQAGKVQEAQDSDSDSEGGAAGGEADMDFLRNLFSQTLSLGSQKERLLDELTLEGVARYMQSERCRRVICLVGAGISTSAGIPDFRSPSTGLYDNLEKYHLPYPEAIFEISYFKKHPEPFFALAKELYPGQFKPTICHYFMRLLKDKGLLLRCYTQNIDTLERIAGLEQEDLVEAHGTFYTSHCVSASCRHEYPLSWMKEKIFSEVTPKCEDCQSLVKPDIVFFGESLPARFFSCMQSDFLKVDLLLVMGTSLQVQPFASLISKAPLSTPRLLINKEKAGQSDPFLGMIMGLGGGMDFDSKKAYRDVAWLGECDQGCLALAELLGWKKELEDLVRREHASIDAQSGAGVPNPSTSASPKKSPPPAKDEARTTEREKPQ", "experiment": "SIRT2 inhibition fluorescence assay (AcIQF substrate)", "format": "biochemical", "procedure": "For the inhibitory activity against SIRT2, substrate is the AcIQF.^[ [46] ^] Dilution series compound was incubated with the SIRT2 enzyme ([…]) for 30 min at 25 °C. Then AcIQF (5 × 10^−3 M) and NAD^+ ([…]) were added to start the reaction at 25 °C. 2 h later, […] stop solution (containing ≈2 U mL^−1 trypsin and 4 × 10^−3 M nicotinamide) was added to stop the reactions. Then the mixture was incubated for 30 min, and the fluorescence intensity was assessed."}, "[1]": {"experiment": "Tissue distribution study in ICR mice (i.p.)", "format": "in vivo", "settings": "i.p. at 5 mg/kg; 0.17, 0.5 and 1 h", "procedure": "For the distribution experiment, compound was dissolved in solution containing 10% DMAC, 40% PEG‐400, and 50% water and was delivered to […] male ICR mice by intraperitoneal injection (i.p.) at a dose of 5 mg kg^−1. Then three […] were sacrificed for each 0.17, 0.5, and 1 h time period. Subsequently, the heart, liver, spleen, lung, and kidney were immediately collected. Blood samples were obtained via cardiac puncture and processed by centrifugation to retrieve the plasma fraction. Tissues were flushed with normal saline, dried, weighed, and then homogenized in 5 mL methanol. Tissue samples were centrifuged at 4000 g, and supernatants were stored in freezer at −80 °C before analyzing. 20 µL of the reconstitution solution were analyzed via LC‐MS system. The 8‐week‐old male C57BL/6J mice were provided by GemPharmatech (Nanjing, China)."}, "[2]": {"tested_on": "acetylation of histone H3, histone H4, and α-tubulin", "experiment": "Acetylation of histone H3, histone H4 and α-tubulin in HEK293T cells (immunoblot)", "format": "cell-based", "settings": "HEK293T cells, 0.25, 0.5 and 1 × 10^−6 M, 24 h", "procedure": "(§2) Western blot was carried out as described.^[ [49] ^] In brief, samples were lysed with a lysis buffer. The same quantity of total proteins (40–60 µg) from each sample was separated on SDS‐PAGE followed by transfer onto a nitrocellulose filter membrane and incubation with the indicated antibodies. After incubation with secondary antibodies, the protein bands were visualized using a chemiluminescence imaging system. All samples in the same group were processed simultaneously."}, "AML12 cells": {"tested_on": "AML12 cells", "experiment": "FFA-induced lipid accumulation in AML12 cells (Oil Red O)", "format": "cell-based", "settings": "24 h"}, "HepG2 cells": {"tested_on": "HepG2 cells", "experiment": "FFA-induced lipid accumulation in HepG2 cells (Oil Red O)", "format": "cell-based, human", "settings": "24 h", "procedure": "(§3) For the lipid accumulation experiment, HepG2 cells were incubated for 24 h in DMEM containing 0.5 × 10^−3 M of a mixture of free fatty acids (FFA; oleic acid: palmitic acid = 2:1) and 1% FFA‐free bovine serum albumin to induce intracellular lipid accumulation, together with B6 treatment.\nCells were fixed with 4% paraformaldehyde, followed by sequential staining with Oil Red O and hematoxylin."}, "[3]": {"tested_on": "SREBP1c, FASN, SCD1, CPT1A, PGC1α, PPARα, p-AMPKα (Thr172), LKB1 in HepG2 cells", "experiment": "Protein and mRNA expression and AMPKα phosphorylation in FFA-induced HepG2 cells", "format": "cell-based, human", "procedure": "as §3, §2\nCells and liver tissues were extracted for total RNA. A reverse transcription kit was used to synthesize cDNA. qRT‐PCR was performed with the primers listed in Table S1 (Supporting Information) using the SYBR green PCR master mix. The coding sequence of the target gene was found in NCBI, and Primer3 (v.0.4.0) was used to design amplification primers. The results were normalized by β‐actin in the corresponding sample."}, "[4]": {"settings": "FFA-induced HepG2 cells, 0.5 × 10^−6 M, 24 h"}, "[5]": {"settings": "FFA-treated HepG2 cells, 0.5 × 10^−6 M, 24 h"}},
  "data": [
    {"smiles": "CCCCCOCCCCCNNC(=O)c1ccc(CNC(=O)c2ccccc2)cc1", "note": "[B6]", "values": [
      {"measurement": "IC50", "setting": "HDAC11", "value": 0.0511, "unit": "µM"},
      {"measurement": "IC50", "setting": "HDAC1", "value": "> 10", "unit": "µM"},
      {"measurement": "IC50", "setting": "HDAC5", "value": "> 10", "unit": "µM"},
      {"measurement": "IC50", "setting": "HDAC6", "value": "> 10", "unit": "µM"},
      {"measurement": "inhibitory activity against other HDAC subtypes, including SIRT2", "setting": "SIRT2; at a concentration of 10 × 10^−6 M", "value": "no significant inhibitory activity"},
      {"measurement": "IC50", "setting": "SIRT2; mean ± SEM", "value": "> 10", "unit": "µM"},
      {"measurement": "tissue distribution (blood, heart, liver, spleen, lung, kidney)", "setting": "[1]", "value": "highest concentrations observed in the liver and kidneys"},
      {"measurement": "acetylation levels of histones H3 and H4 or tubulin", "setting": "[2]", "value": "no effect"},
      {"measurement": "concentration of maximal effect on lipid accumulation", "setting": "AML12 cells", "value": 500, "unit": "nM"},
      {"measurement": "FFA-induced lipid accumulation", "setting": "AML12 cells; various concentrations", "value": "significantly mitigated"},
      {"measurement": "FFA-induced lipid accumulation", "setting": "HepG2 cells", "value": "Comparable reduction in lipid accumulation"},
      {"measurement": "LKB1 mRNA levels", "setting": "[3]; FFA-induced HepG2 cells", "value": "increase in LKB1 mRNA levels"},
      {"measurement": "mRNA levels of CaMKKβ and TAK1", "setting": "[3]; FFA-induced HepG2 cells", "value": "did not exhibit significant changes"},
      {"measurement": "protein and mRNA expression of CPT1A, PGC1α and PPARα", "setting": "[3]; [4]", "value": "upregulation of protein and mRNA expression"},
      {"measurement": "protein and mRNA expression of SREBP1c, FASN and SCD1", "setting": "[3]; [4]", "value": "reduction of protein and mRNA expression"},
      {"measurement": "phosphorylation of AMPKα at Thr172", "setting": "[3]; [5]", "value": "restores the phosphorylation level"},
      {"measurement": "protein expression of LKB1 and p-LKB1", "setting": "[3]; [5]", "value": "increase LKB1 expression"}
    ]}
  ]
}
